Experiments:
Test in all cases: Post-emergence test, weed control effect
Type in all cases: in vivo
Details in all cases: after 3 weeks
Chenopodiaceae = test system: Chenopodiaceae
Excerpt: (§1) The activity level standard of harmful plant destruction (i.e. growth inhibition rate) is as follows: • Level 10: completely dead; • Level 9: above 90% growth inhibition rate; • Level 8: above 80% growth inhibition rate; • Level 7: above 70% growth inhibition rate; • Level 6: above 60% growth inhibition rate; • Level 5: above 50% growth inhibition rate; • Level 4: above 40% growth inhibition rate; • Level 3: above 30% growth inhibition rate; • Level 2: above 20% growth inhibition rate; • Level 1: below 20% growth inhibition rate; • Level 0: no effect.
(§2) The above described growth inhibition rates are fresh weight inhibition rates.
(§3) Experiment of post-emergence test: monocotyledonous and dicotyledonous weed seeds as well as main crop seeds (i.e., wheat, corn, rice, soybean, cotton, oilseed rape, millet and sorghum) were put into a plastic pot loaded with soil, then covered with 0.5-2 cm of soil, and the seeds were allowed to grow in good greenhouse environment. The test plants were treated at 2-3 leaf stage 2-3 weeks after sowing. The test compounds of the invention were dissolved in acetone respectively, then added with Tween-80 and diluted by a certain amount of water to give solutions with certain concentrations, and added with 80% vegetable oil methyl ester synergist at 1500 g/ha. The solution was sprayed to the plants with a sprayer. The plants were cultured for 3 weeks in the greenhouse.

Rorippa indica = test system: Rorippa indica
Excerpt: as §1, §2, §3

Veronica polita = test system: Veronica polita
Excerpt: as §1, §2, §3

Amaranthus retroflexus = test system: Amaranthus retroflexus
Excerpt: as §1, §2, §3

Oc1cc(C(F)(F)F)nnc1-c1ccc(Cl)nc1Cl [Compound 991]
10: weed control effect (activity level), Chenopodiaceae (Chenopodiaceae; Dose 3000 g/ha) | weed control effect (activity level), Rorippa indica (Rorippa indica; Dose 3000 g/ha) | weed control effect (activity level), Veronica polita (Veronica polita; Dose 3000 g/ha) | weed control effect (activity level), Amaranthus retroflexus (Amaranthus retroflexus; Dose 3000 g/ha)

Oc1cc(C(F)(F)F)nnc1-c1cc(F)cnc1F [Compound 986]
10: weed control effect (activity level), Chenopodiaceae (Chenopodiaceae; Dose 3000 g/ha) | weed control effect (activity level), Rorippa indica (Rorippa indica; Dose 3000 g/ha) | weed control effect (activity level), Veronica polita (Veronica polita; Dose 3000 g/ha) | weed control effect (activity level), Amaranthus retroflexus (Amaranthus retroflexus; Dose 3000 g/ha)

Cc1cc(-c2nnc(C(F)(F)F)cc2O)ccc1Cl [Compound 72]
10: weed control effect (activity level), Chenopodiaceae (Chenopodiaceae; dose 1000 g/ha) | weed control effect (activity level), Rorippa indica (Rorippa indica; dose 1000 g/ha) | weed control effect (activity level), Veronica polita (Veronica polita; dose 1000 g/ha) | weed control effect (activity level), Amaranthus retroflexus (Amaranthus retroflexus; dose 1000 g/ha)

Cc1ccc(-c2nnc(C(F)(F)F)cc2OC(=O)OCC(C)(C)C)c([N+](=O)[O-])c1 [Compound 1-33]
10: weed control effect, Chenopodiaceae (activity level) (Chenopodiaceae; Dose 3000 g/ha) | weed control effect, Rorippa indica (activity level) (Rorippa indica; Dose 3000 g/ha) | weed control effect, Veronica polita (activity level) (Veronica polita; Dose 3000 g/ha) | weed control effect, Amaranthus retroflexus (activity level) (Amaranthus retroflexus; Dose 3000 g/ha)

CCn1nccc1-c1nnc(C(F)(F)F)cc1O [Compound 826]
10: weed control effect (activity level), Chenopodiaceae (Chenopodiaceae; Dose 3000 g/ha) | weed control effect (activity level), Rorippa indica (Rorippa indica; Dose 3000 g/ha) | weed control effect (activity level), Veronica polita (Veronica polita; Dose 3000 g/ha) | weed control effect (activity level), Amaranthus retroflexus (Amaranthus retroflexus; Dose 3000 g/ha)

O=S(=O)(Oc1cc(C(F)(F)F)nnc1-c1cccc(F)c1)c1ccc(Oc2ccccc2)nc1 [Compound 1-146]
10: weed control effect, Chenopodiaceae (activity level) (Chenopodiaceae; Dose 3000 g/ha) | weed control effect, Rorippa indica (activity level) (Rorippa indica; Dose 3000 g/ha) | weed control effect, Veronica polita (activity level) (Veronica polita; Dose 3000 g/ha) | weed control effect, Amaranthus retroflexus (activity level) (Amaranthus retroflexus; Dose 3000 g/ha)

O=S(Oc1cc(C(F)(F)F)nnc1-c1ccc(F)cc1)C(F)(F)F (stereo not shown) [Compound 1-166]
10: weed control effect, Chenopodiaceae (activity level) (Chenopodiaceae; Dose 3000 g/ha) | weed control effect, Rorippa indica (activity level) (Rorippa indica; Dose 3000 g/ha) | weed control effect, Veronica polita (activity level) (Veronica polita; Dose 3000 g/ha) | weed control effect, Amaranthus retroflexus (activity level) (Amaranthus retroflexus; Dose 3000 g/ha)

Oc1cc(C(F)(F)F)nnc1-c1c(F)ccnc1F [Compound 987]
10: weed control effect (activity level), Chenopodiaceae (Chenopodiaceae; Dose 3000 g/ha) | weed control effect (activity level), Rorippa indica (Rorippa indica; Dose 3000 g/ha) | weed control effect (activity level), Veronica polita (Veronica polita; Dose 3000 g/ha) | weed control effect (activity level), Amaranthus retroflexus (Amaranthus retroflexus; Dose 3000 g/ha)

Cn1ccnc1S(=O)(=O)Oc1cc(C(F)(F)F)nnc1-c1cccc(F)c1 [Compound 1-150]
10: weed control effect, Chenopodiaceae (activity level) (Chenopodiaceae; Dose 3000 g/ha) | weed control effect, Rorippa indica (activity level) (Rorippa indica; Dose 3000 g/ha) | weed control effect, Veronica polita (activity level) (Veronica polita; Dose 3000 g/ha) | weed control effect, Amaranthus retroflexus (activity level) (Amaranthus retroflexus; Dose 3000 g/ha)

COc1cccc(-c2nnc(C(F)(F)F)cc2O)c1F [Compound 68]
10: weed control effect (activity level), Chenopodiaceae (Chenopodiaceae; dose 1000 g/ha) | weed control effect (activity level), Rorippa indica (Rorippa indica; dose 1000 g/ha) | weed control effect (activity level), Veronica polita (Veronica polita; dose 1000 g/ha) | weed control effect (activity level), Amaranthus retroflexus (Amaranthus retroflexus; dose 1000 g/ha)

O=Cc1c(F)cccc1-c1nnc(C(F)(F)F)cc1O [Compound 63]
10: weed control effect (activity level), Chenopodiaceae (Chenopodiaceae; dose 1000 g/ha) | weed control effect (activity level), Rorippa indica (Rorippa indica; dose 1000 g/ha) | weed control effect (activity level), Veronica polita (Veronica polita; dose 1000 g/ha) | weed control effect (activity level), Amaranthus retroflexus (Amaranthus retroflexus; dose 1000 g/ha)

Cc1cc(-c2nnc(C(F)(F)F)cc2O)cnc1Cl [Compound 225]
10: weed control effect (activity level), Chenopodiaceae (Chenopodiaceae; dose 2000 g/ha) | weed control effect (activity level), Rorippa indica (Rorippa indica; dose 2000 g/ha) | weed control effect (activity level), Veronica polita (Veronica polita; dose 2000 g/ha) | weed control effect (activity level), Amaranthus retroflexus (Amaranthus retroflexus; dose 2000 g/ha)

Oc1cc(C(F)(F)F)nnc1-c1c(F)cc(F)cc1F [Compound 52]
10: weed control effect (activity level), Chenopodiaceae (Chenopodiaceae; dose 1000 g/ha) | weed control effect (activity level), Rorippa indica (Rorippa indica; dose 1000 g/ha) | weed control effect (activity level), Veronica polita (Veronica polita; dose 1000 g/ha) | weed control effect (activity level), Amaranthus retroflexus (Amaranthus retroflexus; dose 1000 g/ha)

Oc1cc(C(F)(F)F)nnc1-c1cccc2cccnc12 [Compound 734]
10: weed control effect (activity level), Chenopodiaceae (Chenopodiaceae; dose 1000 g/ha) | weed control effect (activity level), Rorippa indica (Rorippa indica; dose 1000 g/ha) | weed control effect (activity level), Veronica polita (Veronica polita; dose 1000 g/ha) | weed control effect (activity level), Amaranthus retroflexus (Amaranthus retroflexus; dose 1000 g/ha)

COc1ccc(OCC(=O)Oc2cc(C(F)(F)F)nnc2-c2ccc(F)cc2)cc1 [Compound 1-101]
10: weed control effect, Chenopodiaceae (activity level) (Chenopodiaceae; Dose 3000 g/ha) | weed control effect, Rorippa indica (activity level) (Rorippa indica; Dose 3000 g/ha) | weed control effect, Veronica polita (activity level) (Veronica polita; Dose 3000 g/ha) | weed control effect, Amaranthus retroflexus (activity level) (Amaranthus retroflexus; Dose 3000 g/ha)

O=C(Oc1cc(C(F)(F)F)nnc1-c1ccc(F)cc1)Sc1ccccc1 [Compound 1-164]
10: weed control effect, Chenopodiaceae (activity level) (Chenopodiaceae; Dose 3000 g/ha) | weed control effect, Rorippa indica (activity level) (Rorippa indica; Dose 3000 g/ha) | weed control effect, Veronica polita (activity level) (Veronica polita; Dose 3000 g/ha) | weed control effect, Amaranthus retroflexus (activity level) (Amaranthus retroflexus; Dose 3000 g/ha)

Cc1cc(Cl)ccc1-c1nnc(C(F)(F)F)cc1O [Compound 71]
10: weed control effect (activity level), Chenopodiaceae (Chenopodiaceae; dose 1000 g/ha) | weed control effect (activity level), Rorippa indica (Rorippa indica; dose 1000 g/ha) | weed control effect (activity level), Veronica polita (Veronica polita; dose 1000 g/ha) | weed control effect (activity level), Amaranthus retroflexus (Amaranthus retroflexus; dose 1000 g/ha)

Oc1cc(C(F)(F)F)nnc1-c1ccc(Cl)cc1Cl [Compound 39]
10: weed control effect (activity level), Chenopodiaceae (Chenopodiaceae; dose 1000 g/ha) | weed control effect (activity level), Rorippa indica (Rorippa indica; dose 1000 g/ha) | weed control effect (activity level), Veronica polita (Veronica polita; dose 1000 g/ha) | weed control effect (activity level), Amaranthus retroflexus (Amaranthus retroflexus; dose 1000 g/ha)

Oc1cc(C(F)(F)F)nnc1-c1cnc(Cl)c(F)c1 [Compound 1006]
10: weed control effect (activity level), Chenopodiaceae (Chenopodiaceae; Dose 3000 g/ha) | weed control effect (activity level), Rorippa indica (Rorippa indica; Dose 3000 g/ha) | weed control effect (activity level), Veronica polita (Veronica polita; Dose 3000 g/ha) | weed control effect (activity level), Amaranthus retroflexus (Amaranthus retroflexus; Dose 3000 g/ha)

Oc1cc(C(F)(F)F)nnc1-c1ccncc1Cl [Compound 279]
10: weed control effect (activity level), Chenopodiaceae (Chenopodiaceae; dose 2000 g/ha) | weed control effect (activity level), Rorippa indica (Rorippa indica; dose 2000 g/ha) | weed control effect (activity level), Veronica polita (Veronica polita; dose 2000 g/ha) | weed control effect (activity level), Amaranthus retroflexus (Amaranthus retroflexus; dose 2000 g/ha)

CCOc1ccc(F)c(-c2nnc(C(F)(F)F)cc2O)c1F [Compound 81]
10: weed control effect (activity level), Chenopodiaceae (Chenopodiaceae; dose 1000 g/ha) | weed control effect (activity level), Rorippa indica (Rorippa indica; dose 1000 g/ha) | weed control effect (activity level), Veronica polita (Veronica polita; dose 1000 g/ha) | weed control effect (activity level), Amaranthus retroflexus (Amaranthus retroflexus; dose 1000 g/ha)

O=C(COc1cc(C(F)(F)F)nnc1-c1ccc(F)cc1)c1ccccc1 [Compound 1-212]
10: weed control effect, Chenopodiaceae (activity level) (Chenopodiaceae; Dose 3000 g/ha) | weed control effect, Rorippa indica (activity level) (Rorippa indica; Dose 3000 g/ha) | weed control effect, Veronica polita (activity level) (Veronica polita; Dose 3000 g/ha) | weed control effect, Amaranthus retroflexus (activity level) (Amaranthus retroflexus; Dose 3000 g/ha)

From patent US12568972B2, “Pyridazinol compounds and derivatives, preparation methods, herbicidal compositions and applications thereof” (Qingdao Kingagroot Chemical Compound Co., Ltd., priority 2018, dated 2026)
